Values of other authors as cited in patent publication US20080188510A1, “NOVEL METHODS USING ZONISAMIDE” (Eisai R & D Management Co., Ltd., priority 2005, published 2008).

Tested on: dopaminergic neurodegeneration induced by MPTP
Conditions: MPTP (1-methyl-4-phenyl-1,2,3,6-tetrahydropyridine) induced; cited from earlier work

## NS(=O)(=O)Cc1noc2ccccc12 [zonisamide, 3-sulfamoylmethyl-1,2-benzisoxazole]
  suppressant action to dopaminergic neurodegeneration induced by MPTP: extremely strong suppressant action
